{"source": "patent US20140248212A1", "about": "“NON-IMMUNOGENIC POSITRON EMISSION TOMOGRAPHY REPORTER GENE SYSTEMS” (THE REGENTS OF THE UNIVERSITY OF CALIFORNIA, priority 2011, published 2014)", "molecules": {"B1": {"name": "TK2-N93D: truncated human thymidine kinase 2 with N93D point mutation, PET reporter gene product (SEQ ID NO: 3) (protein, listed as Homo sapiens)", "chain": "MSVICVEGNIASGKTTCLEFFSNATDVEVLTEPVSKWRNVRGHDPLGLMYHDASRWGLTLQTYVQLTMLDRHTRPQVSSVRLMERSIHSARYIFVENLYRSGKMPEVDYVVLSEWFDWILRNMDVSVDLIVYLRTNPETCYQRLKKRCREEEKVIPLEYLEAIHHLHEEWLIKGSLFPMAAPVLVIEADHHMERMLELFEQNRDRILTPENRKHCP"}}, "key": {"[1]": {"assay": "Microsomal stability (glucuronidation conditions)", "type": "in vitro ADME", "settings": "glucuronidation conditions (data not shown)", "text": "Regarding condition (d), one has obtained the microsomal stability profiles for 3 out of 4 compounds (FCU, FBU and FddUrd using the glucuronidation conditions)."}, "[2]": {"assay": "Biodistribution of PET reporter probes in mice (microPET/CT)", "type": "in vivo, C57/BL6 mice", "settings": "for biodistribution in mice: C57/BL6 mice, FIG. 25B, no retention in normal tissues except clearance routes (GI tract, bladder)", "protocol": "To identify candidate PRPs, eight nucleoside analogs (FIG. 7A) were synthesized that were amenable to ^18F labeling (the first criterion for PRPs). To identify PRP candidates with rapid clearance from normal tissues and low overall background (second criterion for PRGs), biodistribution studies in mice were performed. It was observed that natural (D) nucleosides had higher background than non-natural (L) nucleoside analogs. […] The next step was to identify a human nucleoside kinase that phosphorylates L-[^18F]FMAU and L-[^18F]FEAU, and can be converted into a new PRG that matches four criteria:\nInitially, a group of nucleoside analogs amenable to fluorine-18 labeling were identified. These PET tracers, 5 of which were novel, were then screened to determine their biodistribution in C57/BL6 mice (n=3 for each PET tracer) through dynamic microPET scans. […] Rational design is utilized to introduce mutations into human nucleoside kinase thymidine kinase 2 (TK2) to improve the affinity of the kinase for the top candidate probe. The sensitivity and specificity of the novel PET reporter probe/gene pair was then determined in vitro and in vivo using a murine cancer model.\nAnimal studies were approved and carried out according to specific guidelines. C57/BL6 mice were injected with the indicated probe and underwent micro-PET/CT analyses at 1- and 3-h post probe injection (Inveon, Siemens Medical Solutions USA Inc.; microCAT; Imtek Inc.). For tumor imaging studies, SCID mice were injected subcutaneously on day −7 in the right and left flanks with 1×10^6 L1210-PRG-expressing cells in 50% v/v phosphate-buffered saline and 50% v/v Matrigel™ (BD Biosciences). For imaging experiments, mice were kept warm and under gas anesthesia (2% v/v isoflurane) and were injected intravenously with 200 μCi of ^18F-labeled probes. A 3-h interval was allowed between probe administration and microPET/CT scanning Static microPET images were acquired for 600 s. Image data were evaluated in three-dimensional histograms and reconstructed with a zoom factor of 2.1 using three-dimensional ordered set expectation maximization (OSEM) with 2 iterations followed by MAP (maximum a posteriori) reconstruction with 18 iterations (beta=0.1). Images were analyzed using OsiriX Imaging Software Version 3.8."}, "[3]": {"tested_on": "TK1", "assay": "[3H]dT uptake inhibition assay (competition with thymidine for TK1)", "type": "cell-based", "text": "FIG. 6 provides a graph that illustrates data regarding an assay to determine whether candidate probes compete with thymidine for TK1.\nFurther evaluations can be carried out to precisely assess the affinity of these candidate probes for purified recombinant TK1."}, "[4]": {"target": "T1, TK2-N93D/L109F (Homo sapiens, UniProt O00142, L109F/N93D)", "T1 construct": "hexahistidine (N, cleaved yes); SUMO (N, cleaved yes); made in house; host or cells: Escherichia coli BL21 (DE3) C41, modified pET14b", "T1 sequence (O00142 51-265 N93D/L109F)": "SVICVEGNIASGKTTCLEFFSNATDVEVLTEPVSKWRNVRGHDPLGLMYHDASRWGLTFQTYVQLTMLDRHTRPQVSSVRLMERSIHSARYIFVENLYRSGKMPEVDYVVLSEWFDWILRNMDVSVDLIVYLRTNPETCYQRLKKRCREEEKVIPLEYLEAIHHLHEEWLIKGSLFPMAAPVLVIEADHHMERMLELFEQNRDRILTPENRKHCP", "assay": "Kinetic analyses of recombinant TK2 (NADH-dependent enzyme coupled assay), TK2-N93D/L109F", "type": "biochemical", "protocol": "FIG. 34 provides a table that illustrates the kinetics of the phosphorylation of D and L-nucleosides by the TK2 mutants. Kinase assays were performed with recombinant protein with 200 μM of the listed substrate."}, "[5]": {"target": "T2, TK2-N93D (Homo sapiens, UniProt O00142, N93D)", "T2 sequence (O00142 51-265 N93D)": "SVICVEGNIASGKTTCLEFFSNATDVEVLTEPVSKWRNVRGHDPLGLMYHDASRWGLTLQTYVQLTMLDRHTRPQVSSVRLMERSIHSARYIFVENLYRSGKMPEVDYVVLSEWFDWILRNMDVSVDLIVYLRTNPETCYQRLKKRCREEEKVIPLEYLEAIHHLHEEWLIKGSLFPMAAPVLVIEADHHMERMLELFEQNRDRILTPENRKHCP", "assay": "Kinetic analyses of recombinant TK2 (NADH-dependent enzyme coupled assay), TK2-N93D", "settings": "37° C., 1 mM ATP", "method": "(§1) A NADH-dependent enzyme coupled assay (see, e.g. Agarwal, K. C., et al. (1978) Methods Enzymol. 51, 483-490) was used. Using a Cary UV spectrophotometer, measurements were made in triplicate at 37° C. in a buffer containing 100 mM Tris, pH 7.5, 100 mM KCl, 5 mM MgCl2, and 1 mM ATP. For data in which kobs is given, a single nucleoside concentration of 200 μM was used. For data in which both Km and kcat are given, the nucleoside concentration was varied between 15 and 500 μM. TK2 concentration in the cuvette was 400 nM. Data were fit to the Michaelis-Menten equation using SigmaPlot. […] Therefore, all of the kinetic data using the Michaelis-Menten equation without the Hill coefficient is presented."}, "[6]": {"target": "T3, TK2-L109F (Homo sapiens, UniProt O00142, L109F)", "T3 sequence (O00142 51-265 L109F)": "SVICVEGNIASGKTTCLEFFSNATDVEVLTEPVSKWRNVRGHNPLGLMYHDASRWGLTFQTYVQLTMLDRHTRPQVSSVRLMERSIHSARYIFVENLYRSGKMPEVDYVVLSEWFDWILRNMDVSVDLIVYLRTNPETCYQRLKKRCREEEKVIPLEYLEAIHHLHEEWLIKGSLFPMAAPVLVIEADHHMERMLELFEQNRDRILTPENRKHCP", "assay": "Kinetic analyses of recombinant TK2 (NADH-dependent enzyme coupled assay), TK2-L109F", "settings": "37° C., 1 mM ATP", "method": "as §1"}, "[7]": {"tested_on": "Baf-3 cells", "assay": "Test of mutant htk2 reporter genes in Baf-3 cells", "type": "cell-based", "text": "The sensitivity of the described mutant htk2 imaging reporter genes can be evaluated through cell culture assays and PET imaging in mouse tumor models. […] Further tests regarding the effect of expressing these reporter genes on various cells can be used to determine other potential targets. […] Several enhanced htk2 mutant reporter genes have been designed and tested. Though the examples herein describe different probes and investigate the L probes mainly in mice, other mammals and in particular, humans are also within the scope of the invention. Silico models can be used to derive additional enhanced mutants from human htk2."}, "[8]": {"tested_on": "L1210 cells", "assay": "Effect of PRG overexpression on growth and dNTP pools of L1210 cells", "type": "cell-based, murine", "protocol": "FIG. 9 provides graphs of data that illustrate how the overexpression of sr39tk affects cell growth and intracellular dNTP pools. L1210 cells were engineered to express: TK2-N93D (▪), TK2 (▴), HSV1-sr39tk (▾), and control vector eYFP (♦). Various graphs show the growth of the L1210 cells in (A) regular media and (B) regular media supplemented with 10 μM thymidine (dT). Other graphs show total cellular dNTP pools (measured by LC-MS) in cells grown in (C) regular media and (D) regular media supplemented with 10 μM dT; (*=below limit of detection).\nL1210 cells transduced to overexpress the listed genes were grown in RPMI media (+/−10 μM dT) for 48 hours. The cells were then harvested and pyrimidine nucleotide pools were obtained via […].\nTo overcome the negative feedback limitation of TK2, a point mutation-N93D, was engineered. The work done by Piskur and colleagues on the structurally related Drosophila melanogaster deoxyribonucleoside kinase (see, e.g. Welin, M., et al. FEBS J 272:3733-3742, 2005) led one to predict that the N93D mutation would reduce the feedback inhibition of TK2 by dTTP. […] We then determined whether the enhanced resistance to feedback inhibition translates into improved TK2-N93D catalytic activity towards the L-[^18F]FMAU substrate. […]"}}}
{"molecule": "O=c1ccn([C@H]2C[C@H]([18F])[C@@H](CO)O2)c(=O)[nH]1", "note": "[^18F-FddUrd, 3′-[^18F]fluoro-2′,3′-dideoxy-uridine]", "values": [{"measurement": "microsomal stability over time", "setting": "[1]", "value": "only FBU showed decrease stability over time"}, {"measurement": "biodistribution in mice", "setting": "[2]", "value": "excellent biodistribution"}, {"measurement": "phosphorylation by endogenous mammalian thymidine kinases", "setting": "[3]", "value": "cannot be phosphorylated"}]}
{"molecule": "Nc1ccn([C@H]2C[C@H](O)[C@@H](CO)O2)c(=O)n1", "note": "[dC, deoxycytidine]", "values": [{"measurement": "kobs as percentage of that of TK2", "setting": "[4]; 200 μM substrate", "value": 62, "unit": "%"}]}
{"molecule": "O=c1[nH]c(=O)n([C@H]2C[C@H]([18F])[C@@H](CO)O2)cc1Br", "note": "[^18F-FBU, 3′-[^18F]fluoro-2′,3′-dideoxy-5-bromouridine]", "values": [{"measurement": "microsomal stability over time", "setting": "[1]", "value": "decrease stability over time"}, {"measurement": "biodistribution in mice", "setting": "[2]", "value": "excellent biodistribution"}, {"measurement": "phosphorylation by endogenous mammalian thymidine kinases", "setting": "[3]", "value": "cannot be phosphorylated"}]}
{"molecule": "Cc1cn([C@@H]2C[C@@H](O)[C@H](CO)O2)c(=O)[nH]c1=O", "note": "[L-dT]", "values": [{"measurement": "decrease of kcat relative to WT TK2", "setting": "[5]", "value": 48, "unit": "%"}, {"measurement": "increase of kcat compared with TK2", "setting": "[4]; 37° C., 1 mM ATP", "value": 54, "unit": "%"}, {"measurement": "change of Km by the L109F mutation", "setting": "[6]", "value": "decrease in the Km"}]}
{"molecule": "Cc1cn([C@H]2C[C@H](O)[C@@H](CO)O2)c(=O)[nH]c1=O", "note": "[D-dT, D-thymidine]", "values": [{"measurement": "decrease of kcat relative to WT TK2", "setting": "[5]", "value": 77, "unit": "%"}, {"measurement": "decrease of kcat/Km compared with WT TK2", "setting": "[5]", "value": 60, "unit": "%"}, {"measurement": "decrease of kcat compared with TK2", "setting": "[4]; 37° C., 1 mM ATP", "value": 49, "unit": "%"}, {"measurement": "change of Km by the L109F mutation", "setting": "[6]", "value": "decrease in the Km"}]}
{"molecule": "CCc1cn([C@H]2O[C@@H](CO)[C@H](O)[C@H]2F)c(=O)[nH]c1=O", "note": "[L-[^18F]FEAU]", "values": [{"measurement": "test of reporter system with probe", "setting": "[7]", "value": "successfully tested"}, {"measurement": "overall background (biodistribution)", "setting": "[2]; candidate 18F nucleoside analog probes in mice, FIG. 7B", "value": "lowest overall background"}]}
{"molecule": "O=c1[nH]c(=O)n([C@H]2C[C@H]([18F])[C@@H](CO)O2)cc1F", "note": "[^18F-FFU, 3′-[^18F]fluoro-2′,3′-dideoxy-5-fluorouridine]", "values": [{"measurement": "biodistribution in mice", "setting": "[2]", "value": "excellent biodistribution"}, {"measurement": "phosphorylation by endogenous mammalian thymidine kinases", "setting": "[3]", "value": "cannot be phosphorylated"}]}
{"molecule": "O=c1[nH]c(=O)n([C@H]2C[C@H]([18F])[C@@H](CO)O2)cc1Cl", "note": "[^18F-FCU, 3′-[^18F]fluoro-2′,3′-dideoxy-5-chlorouridine]", "values": [{"measurement": "microsomal stability over time", "setting": "[1]", "value": "only FBU showed decrease stability over time"}, {"measurement": "biodistribution in mice", "setting": "[2]", "value": "excellent biodistribution"}, {"measurement": "phosphorylation by endogenous mammalian thymidine kinases", "setting": "[3]", "value": "cannot be phosphorylated"}]}
{"molecule": "B1", "values": [{"measurement": "growth rate of transduced cells", "setting": "[8]", "value": "did not affect"}, {"measurement": "intracellular dNTP pools", "setting": "[8]", "value": "did not affect"}]}
